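Compound exposure: 48 hours, 5 concentrations, 96-well plates. At the TGI there is no net growth.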 Where a SMILES comes first, the peptide text is derived from it. The star is where a group is joined. OSu = O=C1CCC(=O)N1O*
Key:
Experiment in all cases: NCI tumour cell line growth inhibition, 48 h
OVCAR-5 ovarian = system: OVCAR-5 ovarian
TK-10 renal = system: TK-10 renal
SK-MEL-5 melanoma = system: SK-MEL-5 melanoma
NCI-H226 lung = system: NCI-H226 lung
IGROV1 ovarian = system: IGROV1 ovarian
SF-539 CNS = system: SF-539 CNS
MDA-N = system: MDA-N
HS 578T breast = system: HS 578T breast
SK-MEL-2 melanoma = system: SK-MEL-2 melanoma
SK-MEL-28 melanoma = system: SK-MEL-28 melanoma
NCI-H522 lung = system: NCI-H522 lung

CC(C)C(NC(=O)Oc1ccccc1)C(=O)NC1c2c(Br)sc(Br)c2C(=O)C1O (configuration not stated)
TGI (OVCAR-5 ovarian): 15.4 µM
TGI (TK-10 renal): > 25 µM
TGI (SK-MEL-5 melanoma): 8.36 µM
TGI (NCI-H226 lung): > 25 µM
TGI (IGROV1 ovarian): 8.11 µM
TGI (SF-539 CNS): > 25 µM
TGI (MDA-N): > 25 µM
TGI (HS 578T breast): > 25 µM
TGI (SK-MEL-2 melanoma): 17.7 µM
TGI (SK-MEL-28 melanoma): 8.67 µM

CCN(CC)CCCNC(=O)c1cc(-c2nccn2C)nc2ccccc12
TGI (OVCAR-5 ovarian): > 100 µM
TGI (TK-10 renal): > 100 µM
TGI (SK-MEL-5 melanoma): > 100 µM
TGI (NCI-H226 lung): > 100 µM
TGI (IGROV1 ovarian): > 100 µM
TGI (SF-539 CNS): > 100 µM
TGI (MDA-N): > 100 µM
TGI (NCI-H522 lung): > 100 µM
TGI (SK-MEL-2 melanoma): > 100 µM

COc1cccc(-c2cc(=O)c3cc(N4CCCCC4)ccc3[nH]2)c1
TGI (OVCAR-5 ovarian): > 100 µM
TGI (TK-10 renal): > 100 µM
TGI (SK-MEL-5 melanoma): 9.55 µM
TGI (NCI-H226 lung): 0.0652 µM
TGI (IGROV1 ovarian): > 100 µM
TGI (SF-539 CNS): 0.0139 µM
TGI (NCI-H522 lung): > 21 µM
TGI (HS 578T breast): > 86.1 µM
TGI (SK-MEL-2 melanoma): > 100 µM
TGI (SK-MEL-28 melanoma): > 100 µM

CCOC(=O)C12OC(OCC)(CC1(OCC)OCC)C1(CC1)C2=O (configuration not stated)
TGI (OVCAR-5 ovarian): > 100 µM
TGI (TK-10 renal): > 100 µM
TGI (SK-MEL-5 melanoma): > 100 µM
TGI (NCI-H226 lung): > 100 µM
TGI (IGROV1 ovarian): > 100 µM
TGI (SF-539 CNS): > 100 µM
TGI (MDA-N): > 100 µM
TGI (SK-MEL-2 melanoma): > 100 µM
TGI (SK-MEL-28 melanoma): > 100 µM

NCCCCC(NC(=O)C(N)Cc1ccc(O)cc1)C(=O)NC(CCCCN)C(=O)NC(CCCCN)C(=O)ON1C(=O)CCC1=O (configuration not stated) (H-YKKK-OSu; configuration not given here)
TGI (OVCAR-5 ovarian): > 100 µM
TGI (TK-10 renal): > 100 µM
TGI (SK-MEL-5 melanoma): > 100 µM
TGI (NCI-H226 lung): > 100 µM
TGI (IGROV1 ovarian): > 100 µM
TGI (MDA-N): > 100 µM
TGI (HS 578T breast): > 100 µM
TGI (SK-MEL-2 melanoma): > 100 µM
TGI (SK-MEL-28 melanoma): > 100 µM

CC1(C)[C@@H](Cn2cc(I)c(=O)[nH]c2=O)CC[C@@]1(C)CO
TGI (OVCAR-5 ovarian): > 100 µM
TGI (TK-10 renal): > 100 µM
TGI (SK-MEL-5 melanoma): > 100 µM
TGI (NCI-H226 lung): > 100 µM
TGI (MDA-N): > 100 µM
TGI (HS 578T breast): > 100 µM
TGI (SK-MEL-2 melanoma): > 100 µM
TGI (SK-MEL-28 melanoma): > 100 µM

O=C1c2cccc3cc([N+](=O)[O-])cc(c23)C(=O)N1Nc1ccc([N+](=O)[O-])cc1[N+](=O)[O-]
TGI (OVCAR-5 ovarian): > 100 µM
TGI (TK-10 renal): > 46.4 µM
TGI (SK-MEL-5 melanoma): 21.1 µM
TGI (NCI-H226 lung): > 31.6 µM
TGI (IGROV1 ovarian): 25.5 µM
TGI (SF-539 CNS): > 31.6 µM
TGI (NCI-H522 lung): 28.6 µM
TGI (HS 578T breast): > 31.6 µM
TGI (SK-MEL-2 melanoma): > 100 µM
TGI (SK-MEL-28 melanoma): 18 µM

COc1cc2c(/C=C3/C(=O)Nc4cccc(Cl)c43)c(Cl)[nH]c2cc1C
TGI (OVCAR-5 ovarian): 14.8 µM
TGI (TK-10 renal): 3.58 µM
TGI (SK-MEL-5 melanoma): 14.3 µM
TGI (NCI-H226 lung): 7.59 µM
TGI (IGROV1 ovarian): 11.8 µM
TGI (SF-539 CNS): 3.38 µM
TGI (NCI-H522 lung): 6.74 µM
TGI (HS 578T breast): 5.58 µM
TGI (SK-MEL-2 melanoma): 12.3 µM
TGI (SK-MEL-28 melanoma): 4.27 µM

COc1cc(OCCN(C)C)c2[nH]c(C(=O)N3CC(CCl)c4ccc(N)cc43)cc2c1 (configuration not stated)
TGI (OVCAR-5 ovarian): 5.63 µM
TGI (TK-10 renal): 1.09 µM
TGI (SK-MEL-5 melanoma): 0.197 µM
TGI (NCI-H226 lung): 2.58 µM
TGI (SK-MEL-2 melanoma): 0.0933 µM

O=S(=O)(O)c1cc(N=Nc2c(O)ccc3ccccc23)cc2c(S(=O)(=O)O)cccc12
TGI (OVCAR-5 ovarian): > 100 µM
TGI (TK-10 renal): > 100 µM
TGI (SK-MEL-5 melanoma): > 100 µM
TGI (NCI-H226 lung): > 100 µM
TGI (IGROV1 ovarian): > 100 µM
TGI (SF-539 CNS): > 100 µM
TGI (NCI-H522 lung): > 100 µM
TGI (HS 578T breast): > 100 µM
TGI (SK-MEL-2 melanoma): > 100 µM
TGI (SK-MEL-28 melanoma): > 100 µM

COc1ccc(C(C)NNC(=O)c2ccncc2)cc1OC (configuration not stated)
TGI (OVCAR-5 ovarian): > 100 µM
TGI (TK-10 renal): > 100 µM
TGI (SK-MEL-5 melanoma): > 100 µM
TGI (NCI-H226 lung): > 100 µM
TGI (IGROV1 ovarian): > 100 µM
TGI (SF-539 CNS): > 100 µM
TGI (MDA-N): > 100 µM
TGI (HS 578T breast): > 100 µM
TGI (SK-MEL-2 melanoma): > 100 µM
TGI (SK-MEL-28 melanoma): > 100 µM

C/C(=N\NC(N)=S)c1ccc2c(c1)Sc1ccccc1O2
TGI (OVCAR-5 ovarian): > 100 µM
TGI (TK-10 renal): 30.7 µM
TGI (SK-MEL-5 melanoma): 6.83 µM
TGI (NCI-H226 lung): > 100 µM
TGI (SF-539 CNS): 4.79 µM
TGI (MDA-N): 2.31 µM
TGI (HS 578T breast): > 100 µM
TGI (SK-MEL-2 melanoma): 6.99 µM
TGI (SK-MEL-28 melanoma): 69.9 µM

CON(C)C(=O)C(C)N(Cc1ccccc1)Cc1ccccc1 (configuration not stated)
TGI (OVCAR-5 ovarian): > 100 µM
TGI (TK-10 renal): > 100 µM
TGI (SK-MEL-5 melanoma): > 100 µM
TGI (NCI-H226 lung): > 100 µM
TGI (IGROV1 ovarian): > 100 µM
TGI (SF-539 CNS): > 100 µM
TGI (MDA-N): > 100 µM
TGI (HS 578T breast): > 100 µM
TGI (SK-MEL-28 melanoma): > 100 µM

CCOC(=O)CCCSCCCC(=O)CCCSCCCC(=O)OCC
TGI (OVCAR-5 ovarian): > 100 µM
TGI (TK-10 renal): > 100 µM
TGI (SK-MEL-5 melanoma): > 100 µM
TGI (IGROV1 ovarian): > 100 µM
TGI (SF-539 CNS): > 100 µM
TGI (MDA-N): > 100 µM
TGI (NCI-H522 lung): > 100 µM
TGI (SK-MEL-28 melanoma): > 100 µM

Cc1[nH]c(=O)nc2sc(=NC3CCCCC3)n(C3CCCCC3)c(=O)c12
TGI (OVCAR-5 ovarian): > 100 µM
TGI (TK-10 renal): > 100 µM
TGI (SK-MEL-5 melanoma): > 100 µM
TGI (NCI-H226 lung): > 100 µM
TGI (IGROV1 ovarian): > 100 µM
TGI (SF-539 CNS): > 100 µM
TGI (MDA-N): > 100 µM
TGI (NCI-H522 lung): > 100 µM
TGI (SK-MEL-2 melanoma): > 100 µM
TGI (SK-MEL-28 melanoma): > 100 µM

CCOC(=O)c1nnn(CCCCO)c1C(=O)OCC
TGI (TK-10 renal): > 100 µM
TGI (SK-MEL-5 melanoma): > 100 µM
TGI (NCI-H226 lung): > 100 µM
TGI (IGROV1 ovarian): > 100 µM
TGI (SF-539 CNS): > 100 µM
TGI (MDA-N): > 100 µM
TGI (HS 578T breast): > 100 µM
TGI (SK-MEL-2 melanoma): > 100 µM
TGI (SK-MEL-28 melanoma): > 100 µM

C=C1c2nc3ccccc3n2C=C(c2ccc(OC)cc2)N1c1ccc(OC)cc1
TGI (OVCAR-5 ovarian): > 100 µM
TGI (TK-10 renal): 24.3 µM
TGI (SK-MEL-5 melanoma): 35.1 µM
TGI (NCI-H226 lung): 43.1 µM
TGI (IGROV1 ovarian): 94.3 µM
TGI (SF-539 CNS): 64.8 µM
TGI (MDA-N): > 100 µM
TGI (NCI-H522 lung): > 100 µM
TGI (SK-MEL-2 melanoma): > 100 µM

N#Cc1nc(-c2cnccn2)oc1N
TGI (OVCAR-5 ovarian): > 100 µM
TGI (TK-10 renal): > 100 µM
TGI (SK-MEL-5 melanoma): > 100 µM
TGI (IGROV1 ovarian): > 100 µM
TGI (MDA-N): > 100 µM
TGI (HS 578T breast): > 100 µM
TGI (SK-MEL-2 melanoma): > 100 µM
TGI (SK-MEL-28 melanoma): > 100 µM

Reference: PubChem BioAssay (NCI)
